pIC50: −log10 of the molar value.
Target: CSF1R (Homo sapiens, UniProt P07333)
Test: HEK293 CSF1R phosphorylation MSD assay
Assay type: cell-based
Parameters: expressed in transfected cells; host or cells: HEK293
Settings: 2 h compound, human M-CSF 50 ng/mL for 5 min; read-out: HEK293 pCSF1R M-CSF MSD:IC50
Outline: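 Ligand-induced CSF1R autophosphorylation was measured by MSD sandwich assay: CSF1R-FKBP from lysates captured via FK506, anti-phosphotyrosine readout. Cells were exposed to compound for 2 h (9-point, half-log, 0.5% DMSO) before 5 min 50 ng/mL M-CSF. Reported IC50 is the mean of duplicate-plate IC50s relative to DMSO control.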

Sequence of CSF1R (P07333 20-972): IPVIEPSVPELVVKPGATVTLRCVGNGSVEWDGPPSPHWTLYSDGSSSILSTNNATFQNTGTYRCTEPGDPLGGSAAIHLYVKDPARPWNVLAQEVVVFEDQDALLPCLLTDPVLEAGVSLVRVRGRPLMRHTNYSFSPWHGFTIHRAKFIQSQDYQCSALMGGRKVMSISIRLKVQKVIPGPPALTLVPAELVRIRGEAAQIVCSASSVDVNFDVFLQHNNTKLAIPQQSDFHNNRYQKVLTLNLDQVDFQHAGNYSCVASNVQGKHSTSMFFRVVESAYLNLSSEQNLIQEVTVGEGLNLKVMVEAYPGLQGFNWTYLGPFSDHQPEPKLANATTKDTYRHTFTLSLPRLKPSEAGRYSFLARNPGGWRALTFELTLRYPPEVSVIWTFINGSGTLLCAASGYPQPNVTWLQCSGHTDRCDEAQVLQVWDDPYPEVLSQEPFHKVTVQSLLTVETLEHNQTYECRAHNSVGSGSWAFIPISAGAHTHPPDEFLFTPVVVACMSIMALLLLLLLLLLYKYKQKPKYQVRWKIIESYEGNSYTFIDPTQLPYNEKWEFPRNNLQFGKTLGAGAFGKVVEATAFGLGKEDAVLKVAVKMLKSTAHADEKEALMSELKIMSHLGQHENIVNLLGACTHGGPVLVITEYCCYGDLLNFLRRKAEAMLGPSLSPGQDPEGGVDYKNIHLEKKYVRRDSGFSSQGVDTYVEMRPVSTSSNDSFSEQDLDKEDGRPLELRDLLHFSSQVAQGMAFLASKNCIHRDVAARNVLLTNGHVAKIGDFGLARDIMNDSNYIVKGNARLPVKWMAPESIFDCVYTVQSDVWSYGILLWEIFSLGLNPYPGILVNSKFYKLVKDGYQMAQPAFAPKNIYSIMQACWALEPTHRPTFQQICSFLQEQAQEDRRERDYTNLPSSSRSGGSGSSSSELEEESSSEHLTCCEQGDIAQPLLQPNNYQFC

Molecule	pIC50
O[C@@H]1CCCC[C@H]1Nc1nc2ccc(Cn3cnc4cc(CN5CCOCC5)cnc43)cc2s1 [Example 82, (1R,2R)-2-((6-((6-(morpholinomethyl)-3H-imidazo[4,5-b]pyridin-3-yl)methyl)benzo[d]thiazol-2-yl)amino)cyclohexanol]	6.30 to 6.70
O[C@@H]1Cc2ccccc2[C@H]1Nc1nc2ccc(Cn3cnc4cc(Br)cnc43)cc2s1 [Example 42, (1R,2R)-1-((6-((6-bromo-3H-imidazo[4,5-b]pyridin-3-yl)methyl)benzo[d]thiazol-2-yl)amino)-2,3-dihydro-1H-inden-2-ol]	6.70 to 7.30
OCC1(CNc2nc3ccc(Cn4cnc5cccnc54)cc3s2)CCCCC1 [Example 76, (1-(((6-((3H-imidazo[4,5-b]pyridin-3-yl)methyl)benzo[d]thiazol-2-yl)amino)methyl)cyclohexyl)methanol]	6.70 to 7.30
COc1cc2c(cc1Br)ncn2Cc1ccc2nc(N[C@@H]3c4ccccc4C[C@H]3O)sc2c1 [Example 49, (1R,2R)-1-((6-((5-bromo-6-methoxy-1H-benzo[d]imidazol-1-yl)methyl)benzo[d]thiazol-2-yl)amino)-2,3-dihydro-1H-inden-2-ol]	6.30 to 6.70
COc1cc2ncn(Cc3ccc4nc(N[C@@H](C)C5CCCCC5)sc4c3)c2cc1OC [Example 33, (S)—N-(1-cyclohexylethyl)-6-((5,6-dimethoxy-1H-benzo[d]imidazol-1-yl)methyl)benzo[d]thiazol-2-amine]	6.70 to 7.30
O[C@@H]1Cc2ccccc2[C@H]1Nc1nc2ccc(Cn3cnc4cc(Br)cnc43)cc2o1 [Example 62, (1R,2R)-1-((6-((6-bromo-3H-imidazo[4,5-b]pyridin-3-yl)methyl)benzo[d]oxazol-2-yl)amino)-2,3-dihydro-1H-inden-2-ol]	≥ 7.30
O[C@@H]1Cc2ccccc2[C@H]1Nc1nc2ccc(Cn3cnc4cccnc43)cc2s1 [Example 46, (1R,2R)-1-((6-((3H-imidazo[4,5-b]pyridin-3-yl)methyl)benzo[d]thiazol-2-yl)amino)-2,3-dihydro-1H-inden-2-ol]	6.70 to 7.30
COc1cc2ncn(Cc3ccc4nc(N[C@@H]5CCCC[C@H]5O)sc4c3)c2cc1-c1cnn(C)c1 [Example 52, (1R,2R)-2-((6-((5-methoxy-6-(1-methyl-1H-pyrazol-4-yl)-1H-benzo[d]imidazol-1-yl)methyl)benzo[d]thiazol-2-yl)amino)cyclohexanol]	≥ 7.30
COc1cc2ncn(Cc3ccc4nc(N[C@@H]5CCCCC[C@H]5O)sc4c3)c2cc1OC (racemic) [Example 50, (±)-2-((6-((5,6-dimethoxy-1H-benzo[d]imidazol-1-yl)methyl)benzo[d]thiazol-2-yl)amino)cycloheptanol]	≥ 7.30
Cn1cc(-c2cn(Cc3ccc4nc(N[C@@H]5CCCC[C@H]5O)oc4c3)cn2)cn1 [Example 77, (1R,2R)-2-((6-((4-(1-methyl-1H-pyrazol-4-yl)-1H-imidazol-1-yl)methyl)benzo[d]oxazol-2-yl)amino)cyclohexanol]	6.70 to 7.30
either (1R,2R)-2-((6-((3H-imidazo[4,5-b]pyridin-3-yl)methyl)benzo[d]thiazol-2-yl)amino)-1-methylcyclohexanol or (1S,2R)-2-((6-((3H-imidazo[4,5-b]pyridin-3-yl)methyl)benzo[d]thiazol-2-yl)amino)-1-methylcyclohexanol [Example 60]	6.70 to 7.30

Other lines, results leading:

pIC50	Molecule
6.70 to 7.30	N#Cc1cnc2c(c1)ncn2Cc1ccc2nc(N[C@@H]3CCCC[C@H]3O)sc2c1 [Example 43, 3-((2-(((1R,2R)-2-hydroxycyclohexyl)amino)benzo[d]thiazol-6-yl)methyl)-3H-imidazo[4,5-b]pyridine-6-carbonitrile]
6.70 to 7.30	O[C@@H]1CCCC[C@H]1Nc1nc2ccc(Cn3cnc4cc(Br)ccc43)cc2s1 [Example 100, (1R,2R)-2-((6-((5-bromo-1H-benzo[d]imidazol-1-yl)methyl)benzo[d]thiazol-2-yl)amino)cyclohexanol]
6.70 to 7.30	COc1cc2c(cc1C#N)ncn2Cc1ccc2nc(N[C@@H]3CCCC[C@H]3O)sc2c1 [Example 65, 1-((2-(((1R,2R)-2-hydroxycyclohexyl)amino)benzo[d]thiazol-6-yl)methyl)-6-methoxy-1H-benzo[d]imidazole-5-carbonitrile]
6.70 to 7.30	O=C1CCCC[C@H]1Nc1nc2ccc(Cn3cnc4cccnc43)cc2s1 [Example 54, (R)-2-((6-((3H-imidazo[4,5-b]pyridin-3-yl)methyl)benzo[d]thiazol-2-yl)amino)cyclohexanone]
≥ 7.30	Cn1cc(-c2cnc3c(c2)ncn3Cc2ccc3nc(N[C@@H]4CCCC[C@H]4O)sc3c2)cn1 [Example 39, (1R,2R)-2-((6-((6-(1-methyl-1H-pyrazol-4-yl)-3H-imidazo[4,5-b]pyridin-3-yl)methyl)benzo[d]thiazol-2-yl)amino)cyclohexanol]
6.70 to 7.30	CS(=O)(=O)O.O[C@@H]1CCCC[C@H]1Nc1nc2ccc(Cn3cnc4cccnc43)cc2s1 [Example 3, (1R,2R)-2-((6-((3H-imidazo[4,5-b]pyridin-3-yl)methyl)benzo[d]thiazol-2-yl)amino)cyclohexanol methanesulfonic acid]
≥ 7.30	O[C@@H]1CCCC[C@H]1Nc1nc2ccc(Cn3cnc4cc(C5CC5)cnc43)cc2s1 [Example 45, (1R,2R)-2-((6-((6-cyclopropyl-3H-imidazo[4,5-b]pyridin-3-yl)methyl)benzo[d]thiazol-2-yl)amino)cyclohexanol]
≥ 7.30	O[C@@H]1CCCC[C@H]1Nc1nc2ccc(Cn3cnc4cc(N5CCOCC5)cnc43)cc2s1 [Example 97, (1R,2R)-2-((6-((6-morpholino-3H-imidazo[4,5-b]pyridin-3-yl)methyl)benzo[d]thiazol-2-yl)amino)cyclohexanol]
6.70 to 7.30	OC[C@@H](Nc1nc2ccc(Cn3cnc4cccnc43)cc2s1)C1CCCCC1 [Example 63, (S)-2-((6-((3H-imidazo[4,5-b]pyridin-3-yl)methyl)benzo[d]thiazol-2-yl)amino)-2-cyclohexylethanol]
6.30 to 6.70	CC(=O)NCc1cnc2c(c1)ncn2Cc1ccc2nc(N[C@@H]3CCCC[C@H]3O)sc2c1 [Example 99, N-((3-((2-(((1R,2R)-2-hydroxycyclohexyl)amino)benzo[d]thiazol-6-yl)methyl)-3H-imidazo[4,5-b]pyridin-6-yl)methyl)acetamide]
6.70 to 7.30	ON=C1CCCC[C@H]1Nc1nc2ccc(Cn3cnc4cccnc43)cc2s1 [Example 58, (R)-2-((6-((3H-imidazo[4,5-b]pyridin-3-yl)methyl)benzo[d]thiazol-2-yl)amino)cyclohexanone oxime]
6.70 to 7.30	O[C@@H]1CCCC[C@H]1Nc1nc2ccc(Cn3cnc4cccnc43)cc2o1 [Example 56, (1R,2R)-2-((6-((3H-imidazo[4,5-b]pyridin-3-yl)methyl)benzo[d]oxazol-2-yl)amino)cyclohexanol]
≥ 7.30	OCc1cnc2c(c1)ncn2Cc1ccc2nc(N[C@@H]3CCCC[C@H]3O)sc2c1 [Example 84, (1R,2R)-2-((6-((6-(hydroxymethyl)-3H-imidazo[4,5-b]pyridin-3-yl)methyl)benzo[d]thiazol-2-yl)amino)cyclohexanol]

Same assay, conditions: HEK293 cells, M-CSF stimulated CSF1R phosphorylation, MSD; read-out: HEK293 pCSF1R M-CSF MSD:IC50

Molecule	pIC50
O[C@@H]1CCCC[C@H]1Nc1nc2ccc(Cc3cnc4cc(-n5nccn5)ccn34)cc2s1 [Example 215, (1R,2R)-2-((6-((7-(2H-1,2,3-triazol-2-yl)imidazo[1,2-a]pyridin-3-yl)methyl)benzo[d]thiazol-2-yl)amino)cyclohexanol]	6.70 to 7.30
CC(O)c1ccn2c(Cc3ccc4nc(N[C@@H]5CCCC[C@H]5O)sc4c3)cnc2c1 (stereo partly drawn) [Example 201, (1R,2R)-2-((6-((7-(1-hydroxyethyl)imidazo[1,2-a]pyridin-3-yl)methyl)benzo[d]thiazol-2-yl)amino)cyclohexanol]	6.30 to 6.70
O[C@@H]1CCCC[C@H]1Nc1nc2ccc(Cn3cnc4cc(C5=CCOCC5)cc(F)c43)cc2s1 [Example 208, (1R,2R)-2-((6-((5-(3,6-dihydro-2H-pyran-4-yl)-7-fluoro-1H-benzo[d]imidazol-1-yl)methyl)benzo[d]thiazol-2-yl)amino)cyclohexanol]	6.70 to 7.30
O[C@@H]1CCCC[C@H]1Nc1nc2ccc(Cn3cnc4cc(N5CCOCC5)ccc43)cc2s1 [Example 209, (1R,2R)-2-((6-((5-morpholino-1H-benzo[d]imidazol-1-yl)methyl)benzo[d]thiazol-2-yl)amino)cyclohexanol]	6.70 to 7.30
O[C@@H]1CCCC[C@H]1Nc1nc2ccc(Cc3cnc4[nH]c5ccccc5n34)cc2s1 [Example 205, (1R,2R)-2-((6-((9H-benzo[d]imidazo[1,2-a]imidazol-3-yl)methyl)benzo[d]thiazol-2-yl)amino)cyclohexanol]	< 6.30
O[C@@H]1CCCC[C@H]1Nc1nc2ccc(Cc3cnc4cc(-n5ccnn5)ccn34)cc2s1 [Example 218, (1R,2R)-2-((6-((7-(1H-1,2,3-triazol-1-yl)imidazo[1,2-a]pyridin-3-yl)methyl)benzo[d]thiazol-2-yl)amino)cyclohexanol]	≥ 7.30
C=Cc1ccn2c(Cc3ccc4nc(N[C@@H]5CCCC[C@H]5O)sc4c3)cnc2c1 [Example 216, (1R,2R)-2-((6-((7-vinylimidazo[1,2-a]pyridin-3-yl)methyl)benzo[d]thiazol-2-yl)amino)cyclohexanol]	6.70 to 7.30

Now from value to molecule:

pIC50	Molecule
6.70 to 7.30	C=Cc1cc(F)c2c(c1)ncn2Cc1ccc2nc(N[C@@H]3CCCC[C@H]3O)sc2c1 [Example 207, (1R,2R)-2-((6-((7-fluoro-5-vinyl-1H-benzo[d]imidazol-1-yl)methyl)benzo[d]thiazol-2-yl)amino)cyclohexanol]
≥ 7.30	O[C@@H]1CCCC[C@H]1Nc1nc2ccc(Cn3cnc4cc(-c5cc[nH]n5)ccc43)cc2s1 [Example 211, (1R,2R)-2-((6-((5-(1H-pyrazol-3-yl)-1H-benzo[d]imidazol-1-yl)methyl)benzo[d]thiazol-2-yl)amino)cyclohexanol]
